Measurements: patent publication US20260070929A1, “METHODS AND COMPOSITIONS FOR MODULATING KRAS(G12D)” (Ranok Therapeutics (Hangzhou) Co. LTD., priority 2022, published 2026)
Read-outs that look alike come from different tables or passages of the source.

Legend:
[1] = test system: AGS gastric carcinoma cells [heterozygous G12D]; test: Cancer cell line proliferation (CellTiter-Glo), AGS; format: cell-based; details: 72 hr treatment, read-out: AGS CTG (EC50)
Outline: (§1)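 EC50 values come from CellTiter-Glo viability measured after 72 hr compound treatment at 37° C./5% CO2 with 0.5% final DMSO. Plating was at 4,000 cells/well with 72 hr growth before dosing, and compounds were serially diluted 3-fold from 20 μM down to 1.02 nM.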

[2] = test system: ASPC1 pancreatic adenocarcinoma cells [homozygous G12D]; test: Cancer cell line proliferation (CellTiter-Glo), ASPC1; format: cell-based; details: 72 hr treatment, read-out: ASPC-1 CTG (EC50)
Outline: as §1

[3] = test system: A-427 lung carcinoma cells [heterozygous G12D]; test: Cancer cell line proliferation (CellTiter-Glo), A-427; format: cell-based; details: A-427 cells, 72 hr treatment, read-out: A427 CTG (EC50)
Outline: as §1

KRAS(G12D)/SOS1 = biological target: T1, KRAS(G12D)/SOS1 (Homo sapiens, UniProt P01116, G12D); test: KRAS(G12D)/SOS1 homogeneous time-resolved fluorescence (HTRF) assay; format: binding; details: absence of GTP; 4° C., 3 hr
T1 construct: purchased Cisbio 63ADK000CB17PEH
T1 sequence (P01116 1-188 isoform P01116-2 G12D): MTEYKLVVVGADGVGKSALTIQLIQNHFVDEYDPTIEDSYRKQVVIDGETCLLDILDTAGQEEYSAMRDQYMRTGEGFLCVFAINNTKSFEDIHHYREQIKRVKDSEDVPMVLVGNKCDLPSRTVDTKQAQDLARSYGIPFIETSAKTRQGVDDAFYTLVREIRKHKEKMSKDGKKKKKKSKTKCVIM
Outline: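 HTRF kit assay of compound-blocked KRAS(G12D)–SOS1 interaction, run without GTP. Compounds were tested as 3-fold dilutions from 20 µM to 1.02 nM and incubated with the reaction components for 3 hr at 4 °C, sealed. IC50 was taken as the concentration giving 50% of maximal inhibition.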

[4] = test system: SW1990 pancreatic adenocarcinoma cells [homozygous G12D]; test: Cancer cell line proliferation (CellTiter-Glo), SW1990; format: cell-based; details: Homo sapiens, 72 hr treatment, read-out: SW1990 CTG (EC50)
Description: The following cancer cell lines were employed: AGS gastric carcinoma [heterozygous G12D](ATCC, CRL-1739); A-427 lung carcinoma [heterozygous G12D](ATCC, HTB-53); ASPC1 pancreatic adenocarcinoma [homozygous G12D](ATCC, CRL-1682) and SW1990 pancreatic adenocarcinoma [homozygous G12D](ATCC CRL-2172). Cell lines were cultured essentially according to ATCC recommendations.
AGS, A-427, ASPC1, SW1990, and GP2D cells were plated in 96-well tissue culture plates at 4,000 cells/well and incubated at 37° C./5% CO2 for 72 hr in 100 μl of media. 3-fold serial dilutions of each test compound were prepared ranging from 20 μM to 1.02 nM. Each cell line was then treated with test compounds at various concentrations with a final concentration of 0.5% DMSO/well, and then incubated at 37° C./5% CO2 for 72 hr. 100 µl of CellTiter-Glo® Reagent (Promega Corporation, Madison, WI) was added to each well and processed according manufacturer's protocol. Results were analyzed and EC50 values were calculated in GraphPad 7 software.

Row | SMILES | EC50 ([1]; Homo sapiens) [nM] | EC50 ([2]; Homo sapiens, ASPC1, 72 h) [nM] | EC50 ([3]; Homo sapiens) [nM] | IC50 (KRAS(G12D)/SOS1) [nM] | EC50 [1] [nM] | EC50 [2] [nM] | EC50 [3] [nM] | EC50 [4] [nM]
1 | CC(C)c1cc(C(=O)N2Cc3ccc(CN4CCN([C@H]5C[C@@H](COc6nc(N7CC8CCC(C7)N8)c7cnc(-c8cccc9cccc(C#N)c89)c(F)c7n6)N(C)C5)CC4)cc3C2)c(O)cc1O [Compound 63] | 100 to 1000 | 100 to 1000 | < 100 | 100 to 1000 | – | – | – | –
2 | CC(C)c1cc(C(=O)N2Cc3ccc(CN4CCN(C[C@H]5CC[C@@H](COc6nc(N7CC8CCC(C7)N8)c7cnc(-c8cc(O)cc9ccccc89)c(F)c7n6)N5C)CC4)cc3C2)c(O)cc1O [Compound 64] | 100 to 1000 | 100 to 1000 | 100 to 1000 | < 100 | – | – | – | –
3 | CCNC(=O)c1nnc(-c2cc(C(C)C)c(O)cc2O)n1-c1ccc(CN2CCN(C[C@H]3CC[C@@H](COc4nc(N5CC6CCC(C5)N6)c5cnc(-c6cc(O)cc7ccccc67)c(F)c5n4)N3C)CC2)cc1 [Compound 65] | < 100 | 100 to 1000 | < 100 | < 100 | – | – | – | –
4 | CCNC(=O)c1nnc(-c2cc(C(C)C)c(O)cc2O)n1-c1ccc(CN2CCN(C[C@H]3CC[C@@H](COc4nc(N5CC6CCC(C5)N6)c5cnc(-c6cccc7ccccc67)c(F)c5n4)N3C)CC2)cc1 [Compound 66] | < 100 | 100 to 1000 | < 100 | 100 to 1000 | – | – | – | –
5 | Cc1cccc2cccc(-c3ncc4c(N5CC6CCC(C5)N6)nc(OC[C@@H]5C[C@H](N6CCN(Cc7ccc8c(c7)CN(C(=O)c7cc(C(C)C)c(O)cc7O)C8)CC6)CN5C)nc4c3F)c12 [Compound 68] | – | – | – | > 1000 | 100 to 1000 | > 1000 | 100 to 1000 | –
6 | CCNC(=O)c1nnc(-c2cc(C(C)C)c(O)cc2O)n1-c1ccc(CN2CCN([C@H]3C[C@@H](COc4nc(N5CC6CNC(C6)C5)c5cnc(-c6cccc7cccc(C)c67)c(F)c5n4)N(C)C3)CC2)cc1 (stereo partly shown) [Compound 69] | 100 to 1000 | > 1000 | 100 to 1000 | > 1000 | – | – | – | –
7 | CC(C)c1cc(C(=O)N2Cc3ccc(CN4CCC(C(=O)N5CCN(C[C@H]6CC[C@@H](COc7nc(N8CC9CCC(C8)N9)c8cnc(-c9cc(O)cc%10ccccc9%10)c(F)c8n7)N6C)CC5)CC4)cc3C2)c(O)cc1O [Compound 70] | 100 to 1000 | > 1000 | 100 to 1000 | < 100 | – | – | – | –
8 | C#Cc1cccc2cc(O)cc(-c3ncc4c(N5CC6CCC(C5)N6)nc(OCC5(CN6CCN(CC7CCN(c8ccc9c(c8)CN(C(=O)c8cc(C(C)C)c(O)cc8O)C9)CC7)CC6)CC5)nc4c3F)c12 [Compound 133] | 100 to 1000 | 100 to 1000 | 100 to 1000 | < 100 | – | – | – | –
9 | C#Cc1cccc2cc(O)cc(-c3ncc4c(N5CC6CNC(C6)C5)nc(OCC5(CN6CCN(CC7CCN(Cc8ccc(-n9c(C(=O)NC(C)C(F)(F)F)nnc9-c9cc(C(C)C)c(O)cc9O)cc8)CC7)CC6)CC5)nc4c3F)c12 (stereo not shown) [Compound 134] | 100 to 1000 | 100 to 1000 | 100 to 1000 | < 100 | – | – | – | –
10 | C#Cc1cccc2cc(O)cc(-c3ncc4c(N5CC6CNC(C6)C5)nc(OCC5(CN6CCN(CC7CCN(Cc8ccc(-n9c(C(=O)NCC(F)(F)F)nnc9-c9cc(C(C)C)c(O)cc9O)cc8)CC7)CC6)CC5)nc4c3F)c12 (stereo not shown) [Compound 135] | 100 to 1000 | 100 to 1000 | 100 to 1000 | < 100 | – | – | – | –
11 | C#Cc1cccc2cc(O)cc(-c3ncc4c(N5CC6CNC(C6)C5)nc(OCC5(CN6CCN(CC7CCN(C(=O)C8CCN(Cc9ccc%10c(c9)CN(C(=O)c9cc(C(C)C)c(O)cc9O)C%10)CC8)CC7)CC6)CC5)nc4c3F)c12 (stereo not shown) [Compound 136] | 100 to 1000 | > 1000 | 100 to 1000 | 100 to 1000 | – | – | – | –
12 | CC(C)c1cc(-c2nnc(C(=O)NC(C)C(F)(F)F)n2-c2ccc(CN3CCC(CN4CCN(CC5(COc6nc(N7CC8CCC(C7)N8)c7cnc(-c8cccc9ccccc89)c(F)c7n6)CC5)CC4)CC3)cc2)c(O)cc1O (stereo not shown) [Compound 137] | 100 to 1000 | 100 to 1000 | 100 to 1000 | 100 to 1000 | – | – | – | –
13 | C#Cc1cccc2cc(O)cc(-c3ncc4c(N5CC6CCC(C5)N6)nc(OCC5(CN6CC[C@H](C(=O)N7CCN(Cc8ccc9c(c8)CN(C(=O)c8cc(C(C)C)c(O)cc8O)C9)CC7)C6)CC5)nc4c3F)c12 [Compound 139] | 100 to 1000 | > 1000 | 100 to 1000 | < 100 | – | – | – | –
14 | C#Cc1cccc2cc(O)cc(-c3ncc4c(N5CC6CCC(C5)N6)nc(OCC5(CN6CCC(OC7CCN(Cc8ccc(-n9c(C(=O)NC(C)C(F)(F)F)nnc9-c9cc(C(C)C)c(O)cc9O)cc8)CC7)CC6)CC5)nc4c3F)c12 (stereo not shown) [Compound 140] | < 100 | < 100 | < 100 | < 100 | – | – | – | –
15 | C#Cc1cccc2cc(O)cc(-c3ncc4c(N5CC6CCC(C5)N6)nc(OCC5(CN6CCC(OC7CCN(C(=O)C8CCN(Cc9ccc%10c(c9)CN(C(=O)c9cc(C(C)C)c(O)cc9O)C%10)CC8)CC7)CC6)CC5)nc4c3F)c12 [Compound 141] | < 100 | 100 to 1000 | < 100 | < 100 | – | – | – | –
16 | C#Cc1c(F)ccc2cc(O)cc(-c3ncc4c(N5CC6CCC(C5)N6)nc(OCC5(CN6CCN(C7CN(Cc8ccc(-n9c(C(=O)NC(C)C(F)(F)F)nnc9-c9cc(C(C)C)c(O)cc9O)cc8)C7)CC6)CC5)nc4c3F)c12 (stereo not shown) [Compound 167] | < 100 | – | – | < 100 | – | – | – | < 100
17 | C#Cc1cccc2cc(O)cc(-c3ncc4c(N5CC6CCC(C5)N6)nc(OCC5(CN6CCN(CC7CCN(Cc8ccc(-n9c(C(=O)NCC)nnc9-c9cc(C(C)C)c(OC)cc9OC)cc8)CC7)CC6)CC5)nc4c3F)c12 [Compound 195] | 100 to 1000 | – | – | – | – | – | – | 100 to 1000
18 | C#Cc1cccc2cc(O)cc(-c3ncc4c(N5CC6CNC(C6)C5)nc(OCC5(CN6CCN(CC7CCN(Cc8ccc(-n9c(C(=O)NCC)nnc9-c9cc(C(C)C)c(O)cc9O)cc8)CC7)CC6)CC5)nc4c3F)c12 (stereo not shown) [Compound 197] | < 100 | – | – | – | – | – | – | 100 to 1000
19 | C#Cc1c(F)ccc2cc(O)cc(-c3ncc4c(N5CC6CCC(C5)N6)nc(OCC5(CN6CCC(C7CCN(Cc8ccc9c(c8)CN(C(=O)c8cc(C(C)C)c(OC)cc8OC)C9)CC7)CC6)CC5)nc4c3F)c12 [Compound 199] | 100 to 1000 | – | – | – | – | – | – | 100 to 1000
20 | C#Cc1c(F)ccc2cc(O)cc(-c3ncc4c(N5CC6CCC(C5)N6)nc(OCC5(CN6CCN(C7CCN(Cc8ccc(-n9c(C(=O)NC(C)C(F)(F)F)nnc9-c9cc(C(C)C)c(OC)cc9OC)cc8)CC7)CC6)CC5)nc4c3F)c12 (stereo not shown) [Compound 200] | 100 to 1000 | – | – | – | – | – | – | > 1000
21 | C#Cc1c(F)ccc2cc(O)cc(-c3ncc4c(N5CC6CCC(C5)N6)nc(OCC5(CN6CC(N7CCN(Cc8ccc9c(c8)CN(C(=O)c8cc(C(C)C)c(O)cc8O)C9)CC7)C6)CC5)nc4c3F)c12 [Compound 202] | 100 to 1000 | – | – | – | – | – | – | 100 to 1000
22 | C#Cc1c(F)ccc2cc(O)cc(-c3ncc4c(N5CC6CCC(C5)N6)nc(OCC5(CN6CC(N7CCN(Cc8ccc(-n9c(C(=O)NC(C)C(F)(F)F)nnc9-c9cc(C(C)C)c(O)cc9O)cc8)CC7)C6)CC5)nc4c3F)c12 (stereo not shown) [Compound 203] | – | – | – | – | – | – | – | < 100
23 | C#Cc1c(F)ccc2cc(O)cc(-c3ncc4c(N5CC6CCC(C5)N6)nc(OC[C@H]5CCCN5Cc5ccc6c(c5)CN(C(=O)c5cc(C(C)C)c(O)cc5O)C6)nc4c3F)c12 [Compound 204] | 100 to 1000 | – | – | – | – | – | – | > 1000
